Consider two sequences from paper PMC4862170, “Genomic screens identify a new phytobacterial microbe-associated molecular pattern and the cognate Arabidopsis receptor-like kinase that mediates its immune elicitation” (Genome Biology, 2016).

This assay has as its target T1, XPS1 ectodomain (Arabidopsis thaliana, UniProt Q9SD62).
T1 construct: The extracellular domain of XPS1 (amino acids 36-650) was cloned by ligation independent cloning; made in house; host or cells: Hi5 insect cells, baculovirus (pMelBac B)
T1 sequence (Q9SD62 36-650): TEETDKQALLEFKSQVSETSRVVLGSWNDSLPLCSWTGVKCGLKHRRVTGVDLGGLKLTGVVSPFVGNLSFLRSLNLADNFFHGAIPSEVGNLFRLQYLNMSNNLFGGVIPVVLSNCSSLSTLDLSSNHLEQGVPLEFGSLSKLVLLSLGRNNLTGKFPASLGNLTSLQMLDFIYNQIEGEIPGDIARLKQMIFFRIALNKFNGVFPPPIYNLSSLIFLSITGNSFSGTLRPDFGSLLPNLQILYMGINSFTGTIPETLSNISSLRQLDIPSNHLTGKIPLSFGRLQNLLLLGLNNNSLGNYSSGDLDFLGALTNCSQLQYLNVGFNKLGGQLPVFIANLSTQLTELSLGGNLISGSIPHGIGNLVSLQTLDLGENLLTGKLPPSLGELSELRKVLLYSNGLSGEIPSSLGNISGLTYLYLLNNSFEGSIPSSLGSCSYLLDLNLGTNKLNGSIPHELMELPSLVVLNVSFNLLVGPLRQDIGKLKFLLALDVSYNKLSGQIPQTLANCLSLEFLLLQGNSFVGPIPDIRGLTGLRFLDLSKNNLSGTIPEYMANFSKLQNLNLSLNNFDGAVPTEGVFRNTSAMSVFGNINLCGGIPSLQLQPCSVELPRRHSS
The experiment in a line: biochemical. The assay is classed as binding. On the procedure:
For XPS1 expression in Hi5 cells, the ectodomain of XPS1 (36-650) was inserted into the baculovirus transfer vector pMelBac B (Invitrogen). The extracellular domain of XPS1 (amino acids 36-650) was cloned by ligation independent cloning between the existing Honey bee melettin signal sequence and the C-terminal Strep II-9x His tag. […] The StrepII-9x His fused XPS1 ectodomain was produced by secreted expression in baculovirus-infected insect cells, harvested 72 h post infection and purified by Ni-NTA affinity chromatography (Qiagen). The samples were processed twice with a Superdex 200 16/60 column (GE Healthcare) pre-equilibrated with 10 mM Bis-Tris pH 6.0, 150 mM NaCl. Protein purity was checked by SDS-PAGE.
The XPS1 ectodomain was kept at a constant concentration (0.5 μM) in a buffer containing 10 mM Bis-Tris pH6, 150 mM NaCl, 5 % glycerol and 0.01 % Tween, whereas varying peptide concentrations were added. Approximately 4–6 μL of each sample was loaded in a fused silica capillary (NanoTemper Technologies). Measurements were performed at room temperature in a Monolith NT.label free instrument at a constant LED power of 20 and MST power of 60 %. Measurements were performed repeatedly on two independent protein preparations to ensure reproducibility. […] Curve fitting was performed by using the NT affinity analysis software from Nanotemper.

Where no end group is shown, it is not given here.

Usually EC50 stands for the concentration giving half of the maximal effect. Low values mean higher potency in that assay, high ones lower potency in that assay. As to LIPEGKVAVTTTQAATERKPLEQPR [xup25], the “Apparent EC50 range of XPS1 for peptide” value is on record as “in the high nM range”; the midpoint of the response, the EC50, lay at 0.381 µM; the “Overall KD of XPS1 binding” value was “not able to calculate an accurate overall KD”.
Usually Kd stands for a measure of binding affinity in units of concentration. “QRLSTGSRINSAKDDAAGLQIA [flg22, reference compound]”: under “additional replicate (Figure S7), XPS1 ECD 0.5 μM, pH6, MST power 60 %, NT affinity analysis”, the “EC50 of binding to XPS1 ECD” value was “could not be fitted using the EC50 fit”. Moreover, the dissociation constant Kd (read-out: KD of binding to XPS1 ECD) was 13.1 µM.
